# Results from patent EP4583874B1, “MULTITARGET NUCLEAR RECEPTOR LIGANDS BASED ON 2-(4-(QUINOLIN-2-YLOXY)PHENOXY)PROPANOIC ACID AND 2-(4-(QUINOXALIN-2-YLOXY)PHENOXY)PROPANOIC ACID FOR THE TREATMENT OF METABOLIC AND LIVER DISEASES” (CHARLES UNIVERSITY, FACULTY OF PHARMACY IN HRADEC KRALOVE, priority 2022, dated 2024).
# Legend:
# human LXRα = biological target: T1, human LXRα (Homo sapiens, UniProt Q13133); test: LXRα luciferase reporter gene assay, inhibition of activation by GW3965 (pGAL4-LXRα / pGL5-UAS 9x) in HepG2 cells; format: cell-based; details: HepG2, 24 h; read-out: LXRα antagonism
# T1 construct: DNA constructs encoding human LBD domains of human PPARα, PPARγ, of LXRα (pGAL4-PPARα, pGAL4-PPARγ, pGAL4-LXRα); expressed in transfected cells; host or cells: HepG2
# T1 sequence (Q13133 209-447 limits assumed): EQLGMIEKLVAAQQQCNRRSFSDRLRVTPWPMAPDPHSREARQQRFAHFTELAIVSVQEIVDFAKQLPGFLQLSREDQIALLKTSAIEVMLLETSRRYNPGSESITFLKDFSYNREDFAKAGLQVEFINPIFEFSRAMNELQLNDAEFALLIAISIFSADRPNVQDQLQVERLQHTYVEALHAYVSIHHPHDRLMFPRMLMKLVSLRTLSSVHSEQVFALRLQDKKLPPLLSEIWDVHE
# Protocol: Bezafibrate, GW7647 and WY14643 are known PPARα ligands. […] GW3965 is known high-affinity LXRα ligand.
# Inverse agonistic/antagonistic activities of tested compounds to LXRα receptor activated by the LXRα agonist GW3965(10 µM). […] Negative value indicates inverse agonism.
# (§1) In HepG2 cells, luciferase gene reporter assays have been performed with the transiently transfected reporter gene luciferase construct with the UAS yeast binding site interacting with GAL4 protein (pGL5-UAS 9x, Promega). DNA constructs encoding human LBD domains of human PPARα, PPARγ, of LXRα (pGAL4-PPARα, pGAL4-PPARγ, pGAL4-LXRα) have been cotransfected with the reporter construct. For FXR, FXRE-luc construct with FXR response elements upstream of Firefly luciferase has been used together with an expression construct for human FXR for HepG2 cells transfection. HepG2 cells were then treated with compounds of the invention for 24 h.
# TGR5 = biological target: T2, TGR5 (Homo sapiens, UniProt Q8TDU6); test: TGR5 luciferase reporter assay; format: cell-based; details: relative activation to LCA 10 µM (100%), negative value indicates inverse agonism
# T2 sequence (Q8TDU6 1-330): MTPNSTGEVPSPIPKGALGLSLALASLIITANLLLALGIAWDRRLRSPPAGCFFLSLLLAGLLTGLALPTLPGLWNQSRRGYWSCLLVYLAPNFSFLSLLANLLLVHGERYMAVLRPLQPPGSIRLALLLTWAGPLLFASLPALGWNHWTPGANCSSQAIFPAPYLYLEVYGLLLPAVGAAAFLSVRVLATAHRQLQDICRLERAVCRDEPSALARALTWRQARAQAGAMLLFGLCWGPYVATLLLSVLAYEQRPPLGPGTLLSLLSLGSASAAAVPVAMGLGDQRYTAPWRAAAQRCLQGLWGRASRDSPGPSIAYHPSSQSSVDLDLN
# C57BL/6J mice = test: Pilot study in mice, liver mRNA expression by RT-qPCR; format: in vivo; details: 3x 30 mg/kg p.o. gavage, liver 24 h after last application, vs vehicle
# Protocol: Compounds 35 and 37 have been applied three times after 24 h (3x 30 mg/kg) via p.o. gavage to wild-type C57BL/6J mice. After 24 h from the last application, mice were sacrificed, and live samples collected on dry ice for total RNA isolation. RT-qPCR experiments have been performed with TaqMan probes and expression has been quantified using a reference gene (beta-actin and Gapdh) and delta-delta method. Data represents fold up or downregulation in mRNA expression for tested genes related to the expression in vehicle-treated control animals. * - statistically significant (p<0.05) up- or down- regulation in animals treated with tested compounds (n=4).
# In the pilot study, compounds of the invention 37 and 35 were applied by per os probe (gavage) to male mice of age 15 weeks (n=4 per group) three times (3 x 30 mg/kg b.w.) in 1%PEG300/methylcellulose solution (compounds of EXAMPLE 37or 35). Livers were sampled 24 hours after application into liquid nitrogen for total RNA insolation and for qRT-PCR analysis (Quantstudio 7 HT Fast Real-Time PCR System).
# Expressions of NR target genes mRNAs in livers of mice or in 3D cultured (spheroids) primary human hepatocytes have been performed using TaqMan probes-based RT-qPCR after isolation of total RNA by Trizol® (ThermoFischer Scientific) reagent and reverse transcription synthesis of cDNA in Quant Studio cycler. Real-time qPCR TaqMan probes have been purchased prom ThermoFisher scientific (Cat. No. 4351372 and 433118). Delta-delta method and Gapdh or TATA-box binding protein (TBP) housekeeping genes were used for relative quantification. Data are expressed as fold up-/down-regulation compared to vehicle-treated samples/mice.
# human PPARα = biological target: T3, human PPARα (Homo sapiens, UniProt Q07869); test: PPARα responsive luciferase reporter gene assay (pGAL4-PPARα / pGL5-UAS 9x) in HepG2 cells; format: cell-based; details: relative activation to fenofibrate 10 µM (100%), HepG2, 24 h, negative value indicates inverse agonism
# T3 construct: DNA constructs encoding human LBD domains of human PPARα, PPARγ, of LXRα (pGAL4-PPARα, pGAL4-PPARγ, pGAL4-LXRα); expressed in transfected cells; host or cells: HepG2
# T3 sequence (Q07869 239-466 limits assumed): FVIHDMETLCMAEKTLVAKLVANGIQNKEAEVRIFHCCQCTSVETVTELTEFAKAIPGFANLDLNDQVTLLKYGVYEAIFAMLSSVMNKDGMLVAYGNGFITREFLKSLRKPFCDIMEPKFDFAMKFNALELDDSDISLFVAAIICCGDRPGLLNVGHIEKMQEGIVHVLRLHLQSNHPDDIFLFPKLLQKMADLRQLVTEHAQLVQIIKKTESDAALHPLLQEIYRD
# Excerpt: Bezafibrate, GW7647 and WY14643 are known PPARα ligands. […] GW3965 is known high-affinity LXRα ligand. […]
# as §1
compound,measurement,setting,value
"C[C@@H](Oc1ccc(Oc2ccc3c(Cl)cccc3n2)cc1)C(=O)O [compound 37, (R)-2-(4-((5-Chloroquinolin-2-yl)oxy)phenoxy)propanoic acid]",inhibition at 10 µM,human LXRα,39%
same,Emax at 10 µM,TGR5,10%
same,Cyp7a1 expression in the mouse liver,C57BL/6J mice,down-regulates
same,Fasn gene expression in the mouse liver,C57BL/6J mice,down-regulate
same,Pck1 gene expression in the mouse liver,C57BL/6J mice,down-regulate
same,cholesterol efflux transporters Abcg5/8 expression in the mouse liver,C57BL/6J mice,down-regulates
same,"key protein involved in fatty acid (beta) oxidation, mRNA expression in the mouse liver",C57BL/6J mice,up-regulate
same,Emax at 10 µM,human PPARα,8%
